{
  "source": "ChEMBL document CHEMBL5465560",
  "about": "“Selectivity Literature for EUbOPEN Chemogenomic Library” (2024)",
  "key": {"[1]": {"molecular_target": "LIM domain kinase 1 (Homo sapiens) (UniProt P53667)", "sequence (P53667 whole entry, looked up, the tested form may be a part)": "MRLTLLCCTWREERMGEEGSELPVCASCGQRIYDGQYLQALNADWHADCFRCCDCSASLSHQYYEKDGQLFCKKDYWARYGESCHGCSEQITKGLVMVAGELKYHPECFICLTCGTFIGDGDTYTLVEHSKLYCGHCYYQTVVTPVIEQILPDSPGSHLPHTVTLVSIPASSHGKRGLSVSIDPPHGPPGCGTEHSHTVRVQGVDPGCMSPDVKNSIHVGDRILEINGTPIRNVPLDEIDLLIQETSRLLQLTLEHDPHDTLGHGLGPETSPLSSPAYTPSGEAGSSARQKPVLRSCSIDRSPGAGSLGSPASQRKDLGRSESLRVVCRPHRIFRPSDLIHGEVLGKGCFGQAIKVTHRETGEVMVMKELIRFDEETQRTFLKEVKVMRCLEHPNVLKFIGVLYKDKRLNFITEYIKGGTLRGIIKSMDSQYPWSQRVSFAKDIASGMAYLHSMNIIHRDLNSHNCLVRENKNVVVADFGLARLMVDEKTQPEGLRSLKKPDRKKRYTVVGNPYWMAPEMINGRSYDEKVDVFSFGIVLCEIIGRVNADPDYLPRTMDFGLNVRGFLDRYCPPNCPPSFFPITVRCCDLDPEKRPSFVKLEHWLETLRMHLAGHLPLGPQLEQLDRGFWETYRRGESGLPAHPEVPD", "assay": "Selectivity interaction (KinomeScan (DiscoverX)) EUB0000229b LIMK1", "conditions": "at 10 µM"}, "Nischarin (Homo sapiens)": {"molecular_target": "Nischarin (Homo sapiens) (UniProt Q9Y2I1)", "sequence (Q9Y2I1 whole entry)": "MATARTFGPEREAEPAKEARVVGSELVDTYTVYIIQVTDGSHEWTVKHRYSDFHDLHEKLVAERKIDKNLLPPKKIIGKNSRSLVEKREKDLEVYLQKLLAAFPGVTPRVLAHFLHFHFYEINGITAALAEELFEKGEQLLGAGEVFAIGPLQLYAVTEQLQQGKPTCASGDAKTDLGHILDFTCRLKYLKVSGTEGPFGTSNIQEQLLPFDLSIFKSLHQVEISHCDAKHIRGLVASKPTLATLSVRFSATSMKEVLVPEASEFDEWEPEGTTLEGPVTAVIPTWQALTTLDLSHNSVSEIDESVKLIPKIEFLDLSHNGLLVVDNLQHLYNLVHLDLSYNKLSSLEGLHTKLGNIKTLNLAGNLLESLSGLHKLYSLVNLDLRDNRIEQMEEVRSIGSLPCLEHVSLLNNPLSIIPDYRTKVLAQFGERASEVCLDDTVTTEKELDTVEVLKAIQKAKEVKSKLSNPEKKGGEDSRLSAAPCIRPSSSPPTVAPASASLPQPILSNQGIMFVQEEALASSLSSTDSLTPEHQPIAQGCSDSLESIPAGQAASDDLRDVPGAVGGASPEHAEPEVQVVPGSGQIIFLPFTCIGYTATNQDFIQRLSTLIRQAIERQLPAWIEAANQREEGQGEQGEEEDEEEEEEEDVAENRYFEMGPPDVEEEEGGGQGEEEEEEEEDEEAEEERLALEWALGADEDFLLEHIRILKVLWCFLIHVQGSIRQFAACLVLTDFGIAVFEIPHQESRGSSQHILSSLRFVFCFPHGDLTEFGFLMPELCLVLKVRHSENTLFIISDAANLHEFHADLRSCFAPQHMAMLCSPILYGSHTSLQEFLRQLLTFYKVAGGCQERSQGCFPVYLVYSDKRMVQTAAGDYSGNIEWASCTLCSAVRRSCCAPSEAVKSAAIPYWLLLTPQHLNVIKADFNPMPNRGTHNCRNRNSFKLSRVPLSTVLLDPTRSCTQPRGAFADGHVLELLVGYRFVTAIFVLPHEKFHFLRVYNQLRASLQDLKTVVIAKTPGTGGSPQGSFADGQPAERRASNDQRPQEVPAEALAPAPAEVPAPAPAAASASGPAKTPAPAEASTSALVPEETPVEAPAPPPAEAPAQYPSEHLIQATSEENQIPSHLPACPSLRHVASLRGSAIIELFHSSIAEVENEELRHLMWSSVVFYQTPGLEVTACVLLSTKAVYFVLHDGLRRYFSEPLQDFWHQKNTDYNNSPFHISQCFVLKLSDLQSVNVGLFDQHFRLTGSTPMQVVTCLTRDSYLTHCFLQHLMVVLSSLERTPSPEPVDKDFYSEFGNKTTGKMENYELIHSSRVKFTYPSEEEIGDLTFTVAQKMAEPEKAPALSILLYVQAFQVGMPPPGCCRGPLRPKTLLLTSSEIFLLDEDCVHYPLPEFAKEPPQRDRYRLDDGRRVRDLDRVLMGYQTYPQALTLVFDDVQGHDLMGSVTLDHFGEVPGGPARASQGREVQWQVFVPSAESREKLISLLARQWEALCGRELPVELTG", "assay": "Selectivity interaction (Eurofins CEREP Diversity Profile (receptors and ion channels)) EUB0000279b NISCH", "conditions": "at 10 µM"}, "[2]": {"molecular_target": "Glycogen synthase kinase-3 beta (Homo sapiens, UniProt P49841)", "sequence (P49841 whole entry, looked up)": "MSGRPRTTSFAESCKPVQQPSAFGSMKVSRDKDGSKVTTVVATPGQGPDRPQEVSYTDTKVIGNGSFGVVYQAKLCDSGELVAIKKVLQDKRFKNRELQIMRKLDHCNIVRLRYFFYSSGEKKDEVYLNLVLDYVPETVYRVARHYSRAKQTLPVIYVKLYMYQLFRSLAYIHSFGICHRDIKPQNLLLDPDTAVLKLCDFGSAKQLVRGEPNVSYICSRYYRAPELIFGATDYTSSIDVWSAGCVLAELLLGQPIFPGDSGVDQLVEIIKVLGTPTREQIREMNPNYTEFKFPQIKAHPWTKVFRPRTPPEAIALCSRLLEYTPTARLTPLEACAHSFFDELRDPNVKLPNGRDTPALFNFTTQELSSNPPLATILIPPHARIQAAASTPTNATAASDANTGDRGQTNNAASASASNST", "assay": "Selectivity interaction (Kinase panel (KiNativ target engagement assay in Jurkat cells)) EUB0001635a GSK3B", "type": "cell-based", "conditions": "Selectivity number of off-targets 0.0, Selectivity number of targets 233.0, Source Knowledge https://www.sciencedirect.com/science/article/pii/S2451945619300674?via%3Dihub, at 1 µM"}, "[3]": {"molecular_target": "T1, Dual specificity protein kinase TTK (Homo sapiens) (UniProt P33981)", "T1 sequence (whole entry)": "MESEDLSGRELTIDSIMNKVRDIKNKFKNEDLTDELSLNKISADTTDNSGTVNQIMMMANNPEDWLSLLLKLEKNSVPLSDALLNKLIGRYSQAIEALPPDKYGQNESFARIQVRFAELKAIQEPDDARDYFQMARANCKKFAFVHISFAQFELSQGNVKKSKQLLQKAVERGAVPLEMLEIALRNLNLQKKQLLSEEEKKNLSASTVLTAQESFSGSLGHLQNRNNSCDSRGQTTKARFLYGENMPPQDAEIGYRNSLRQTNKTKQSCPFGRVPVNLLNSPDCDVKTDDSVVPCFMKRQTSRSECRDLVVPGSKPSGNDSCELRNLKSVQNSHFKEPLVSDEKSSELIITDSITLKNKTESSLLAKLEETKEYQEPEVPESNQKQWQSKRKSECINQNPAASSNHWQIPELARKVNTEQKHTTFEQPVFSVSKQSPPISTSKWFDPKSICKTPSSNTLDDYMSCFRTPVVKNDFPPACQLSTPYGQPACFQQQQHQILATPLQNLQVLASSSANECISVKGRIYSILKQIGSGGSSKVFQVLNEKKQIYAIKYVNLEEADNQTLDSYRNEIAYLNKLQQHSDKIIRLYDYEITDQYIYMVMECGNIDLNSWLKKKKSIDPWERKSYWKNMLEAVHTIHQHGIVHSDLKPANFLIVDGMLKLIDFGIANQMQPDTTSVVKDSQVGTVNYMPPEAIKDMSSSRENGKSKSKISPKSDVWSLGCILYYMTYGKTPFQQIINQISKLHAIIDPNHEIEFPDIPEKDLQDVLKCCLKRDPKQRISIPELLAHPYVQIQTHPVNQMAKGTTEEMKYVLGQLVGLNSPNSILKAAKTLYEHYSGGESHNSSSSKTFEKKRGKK", "assay": "Selectivity interaction (Kinase panel (DSF assay)) EUB0001559a TTK"}, "[4]": {"molecular_target": "Ribosomal protein S6 kinase alpha-1 (Homo sapiens, UniProt Q15418)", "sequence (Q15418 whole entry)": "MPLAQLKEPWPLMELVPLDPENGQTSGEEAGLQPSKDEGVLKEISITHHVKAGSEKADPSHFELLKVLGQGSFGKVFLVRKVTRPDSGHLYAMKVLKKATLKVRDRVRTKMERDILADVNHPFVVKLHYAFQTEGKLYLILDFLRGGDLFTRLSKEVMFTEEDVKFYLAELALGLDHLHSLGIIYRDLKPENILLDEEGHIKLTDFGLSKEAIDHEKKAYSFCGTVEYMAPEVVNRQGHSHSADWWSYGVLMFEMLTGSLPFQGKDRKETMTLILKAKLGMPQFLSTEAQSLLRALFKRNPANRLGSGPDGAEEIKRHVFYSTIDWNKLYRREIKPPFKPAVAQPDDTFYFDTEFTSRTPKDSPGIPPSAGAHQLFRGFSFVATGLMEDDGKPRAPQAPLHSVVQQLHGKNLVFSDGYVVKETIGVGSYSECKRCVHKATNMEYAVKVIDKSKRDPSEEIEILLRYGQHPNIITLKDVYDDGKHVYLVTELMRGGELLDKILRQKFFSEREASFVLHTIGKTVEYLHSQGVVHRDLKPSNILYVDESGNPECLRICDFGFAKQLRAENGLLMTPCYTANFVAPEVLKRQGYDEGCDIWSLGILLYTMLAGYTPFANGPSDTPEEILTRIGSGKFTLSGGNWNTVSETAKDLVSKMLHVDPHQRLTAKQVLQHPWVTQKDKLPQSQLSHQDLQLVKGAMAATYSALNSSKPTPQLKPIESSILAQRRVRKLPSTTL", "assay": "Selectivity interaction (ActivX KiNativ screen (kinase selectivity in THP-1 cell lysates)) EUB0000639a RPS6KA1", "type": "subcellular", "conditions": "lysate, at 0.01 µM"}, "[5]": {"molecular_target": "Cyclin-dependent kinase 3 (Homo sapiens) (UniProt Q00526)", "sequence (Q00526 whole entry, looked up)": "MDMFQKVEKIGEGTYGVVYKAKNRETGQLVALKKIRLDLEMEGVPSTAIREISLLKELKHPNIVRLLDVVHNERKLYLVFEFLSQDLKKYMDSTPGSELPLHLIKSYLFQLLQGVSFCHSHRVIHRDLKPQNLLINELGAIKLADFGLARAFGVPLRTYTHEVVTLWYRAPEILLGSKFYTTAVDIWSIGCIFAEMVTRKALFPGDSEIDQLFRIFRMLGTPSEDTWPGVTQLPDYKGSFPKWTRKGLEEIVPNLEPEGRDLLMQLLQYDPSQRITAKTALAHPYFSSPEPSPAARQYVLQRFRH", "assay": "Selectivity interaction (KinomeScan (DiscoverX)) EUB0000045b CDK3"}, "[6]": {"molecular_target": "T2, Bone morphogenetic protein receptor type-2 (Homo sapiens) (UniProt Q13873)", "T2 sequence (whole entry)": "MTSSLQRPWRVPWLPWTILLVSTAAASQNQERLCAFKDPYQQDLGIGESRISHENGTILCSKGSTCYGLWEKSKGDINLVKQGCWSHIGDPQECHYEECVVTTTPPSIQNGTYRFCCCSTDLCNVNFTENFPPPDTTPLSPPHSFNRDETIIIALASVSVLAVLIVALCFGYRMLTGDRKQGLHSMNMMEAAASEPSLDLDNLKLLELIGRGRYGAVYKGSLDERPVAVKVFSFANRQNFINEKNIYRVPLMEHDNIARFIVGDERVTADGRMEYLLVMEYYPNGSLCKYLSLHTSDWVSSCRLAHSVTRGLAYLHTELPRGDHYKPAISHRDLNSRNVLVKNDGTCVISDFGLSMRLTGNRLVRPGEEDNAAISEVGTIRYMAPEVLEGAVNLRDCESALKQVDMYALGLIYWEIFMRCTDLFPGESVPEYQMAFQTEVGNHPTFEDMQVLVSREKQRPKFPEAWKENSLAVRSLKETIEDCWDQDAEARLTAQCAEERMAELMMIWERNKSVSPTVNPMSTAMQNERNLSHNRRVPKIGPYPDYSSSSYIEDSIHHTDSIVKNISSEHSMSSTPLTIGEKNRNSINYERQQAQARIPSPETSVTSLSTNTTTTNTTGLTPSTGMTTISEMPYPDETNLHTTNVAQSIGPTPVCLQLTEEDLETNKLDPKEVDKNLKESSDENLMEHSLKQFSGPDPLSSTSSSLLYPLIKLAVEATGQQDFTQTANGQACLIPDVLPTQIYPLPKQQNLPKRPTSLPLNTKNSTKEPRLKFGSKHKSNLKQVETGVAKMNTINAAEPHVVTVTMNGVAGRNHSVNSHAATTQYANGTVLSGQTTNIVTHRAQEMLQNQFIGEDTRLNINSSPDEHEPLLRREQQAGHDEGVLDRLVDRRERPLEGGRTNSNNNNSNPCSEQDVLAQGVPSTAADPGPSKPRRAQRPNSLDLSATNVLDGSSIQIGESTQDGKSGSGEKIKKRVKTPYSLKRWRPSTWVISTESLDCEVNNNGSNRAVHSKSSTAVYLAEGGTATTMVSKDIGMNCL", "assay": "Selectivity interaction (KinomeScan (DiscoverX)) EUB0000607a BMPR2", "conditions": "at 10 µM"}, "[7]": {"molecular_target": "T3, Prostaglandin G/H synthase 2 (Homo sapiens) (UniProt P35354)", "T3 sequence (whole entry)": "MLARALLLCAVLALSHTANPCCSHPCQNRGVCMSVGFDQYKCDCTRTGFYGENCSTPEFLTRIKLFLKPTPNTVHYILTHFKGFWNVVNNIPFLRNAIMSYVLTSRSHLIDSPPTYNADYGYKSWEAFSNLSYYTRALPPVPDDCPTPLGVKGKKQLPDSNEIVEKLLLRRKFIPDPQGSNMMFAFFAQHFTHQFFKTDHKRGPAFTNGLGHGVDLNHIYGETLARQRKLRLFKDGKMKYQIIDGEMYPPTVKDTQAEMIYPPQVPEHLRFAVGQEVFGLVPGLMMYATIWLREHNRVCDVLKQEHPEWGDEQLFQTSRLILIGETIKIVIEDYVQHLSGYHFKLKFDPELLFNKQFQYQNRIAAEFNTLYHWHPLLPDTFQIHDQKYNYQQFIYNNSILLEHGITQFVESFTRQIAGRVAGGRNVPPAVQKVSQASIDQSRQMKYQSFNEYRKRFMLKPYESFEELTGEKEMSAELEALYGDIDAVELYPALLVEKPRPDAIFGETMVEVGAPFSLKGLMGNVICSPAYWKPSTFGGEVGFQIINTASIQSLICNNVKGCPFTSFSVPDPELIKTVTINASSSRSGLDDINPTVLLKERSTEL", "assay": "Selectivity interaction (Panel of non-epigenetic targets (kinases, GPCRs, ion channels, and transporters, Eurofins) ) EUB0000271b PTGS2", "conditions": "at 1 µM"}},
  "data": [
    {"smiles": "COc1cc(N(C)c2ccnc3ccc(C(F)(F)F)cc23)cc(OC)c1OC", "values": [
      {"measurement": "% binding", "setting": "[1]", "value": 89, "unit": "%"}
    ]},
    {"smiles": "CC(=O)c1cc(-c2ccccc2OCC2CC2)c2ncccn12", "values": [
      {"measurement": "% of control", "setting": "Nischarin (Homo sapiens)", "value": 87, "unit": "%"}
    ]},
    {"smiles": "C=CC(=O)Nc1ccc(C(=O)Nc2[nH]nc3c2CN(C(=O)N[C@H](CN(C)C)c2ccccc2)C3(C)C)cc1", "values": [
      {"measurement": "% of engagement", "setting": "[2]", "value": -4.3, "unit": "%"}
    ]},
    {"smiles": "CN(C(=O)c1cnn2cccnc12)c1cc2c(cc1N1CCOCC1)C(=O)N(C[C@@H](F)C(C)(C)O)C2", "values": [
      {"measurement": "dTM", "setting": "[3]", "value": -0.3, "unit": "K"}
    ]},
    {"smiles": "CC[C@@H]1[C@H](F)C(=O)N[C@@H]1COc1nccc2cc(C(N)=O)c(OC)cc12", "note": "[ZIMLOVISERTIB]", "values": [
      {"measurement": "% of inhibition", "setting": "[4]", "value": 16.9, "unit": "%"}
    ]},
    {"smiles": "C=CC(=O)Nc1cc(-n2c(=O)ccc3cnc4ccc(-c5ccc(NS(C)(=O)=O)cc5)cc4c32)ccc1C", "values": [
      {"measurement": "% of control", "setting": "[5]; at 1 µM", "value": 100, "unit": "%"},
      {"measurement": "% of control", "setting": "[5]; at 10 µM", "value": 100, "unit": "%"}
    ]},
    {"smiles": "CNC(=O)Nc1ccc(-c2nc(N3CC4CCC(C3)O4)c3cnn(C4CCC5(CC4)OCCO5)c3n2)cc1", "values": [
      {"measurement": "% of control", "setting": "[6]", "value": 83, "unit": "%"}
    ]},
    {"smiles": "Cc1cc(C)cc([C@@H]2c3cc(C)ccc3NC(=O)CN2C(=O)c2ccc(Br)s2)c1", "values": [
      {"measurement": "% of inhibition", "setting": "[7]", "value": 8, "unit": "%"}
    ]}
  ]
}
